Data: patent US10183944B2 (Asana Biosciences, LLC, priority 2011, dated 2019)

Tests used:
[1] = molecular target: Syk (356-635 amino acids) catalytic domain (Homo sapiens (Human), UniProt P43405); experiment: Inhibition of enzymatic Syk kinase activity (radiometric); assay type: biochemical; conditions: read-out: IC50 Syk
Summary of the method: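 Human Syk (356-635) kinase domain (0.035–7.5 ng/reaction) preincubated with compound 30 minutes at room temperature, then reacted with pG4T substrate, 100 μM ATP (stock) and γ-32P-ATP for 10 minutes at 30° C. Reaction stopped with HCl/ATP, spotted on P81 paper, washed and counted by scintillation. Percent inhibition versus no-compound counts.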

[2] = molecular target: JAK2 (Homo sapiens (Human), UniProt O60674); experiment: Inhibition of enzymatic JAK2 kinase activity (TR-FRET); assay type: biochemical; conditions: read-out: IC50 JAK
JAK2, sequence (O60674 808-1132): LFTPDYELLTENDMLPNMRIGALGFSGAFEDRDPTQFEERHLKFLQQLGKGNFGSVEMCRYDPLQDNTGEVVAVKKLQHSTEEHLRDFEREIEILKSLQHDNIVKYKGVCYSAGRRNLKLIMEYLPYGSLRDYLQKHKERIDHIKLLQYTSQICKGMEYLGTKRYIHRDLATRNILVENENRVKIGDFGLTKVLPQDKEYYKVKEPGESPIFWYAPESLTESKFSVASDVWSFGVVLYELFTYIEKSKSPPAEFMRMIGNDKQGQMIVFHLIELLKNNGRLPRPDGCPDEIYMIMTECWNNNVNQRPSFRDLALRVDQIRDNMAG
Source text: The objective of this assay was to screen compounds in a Time-resolved fluorescence resonance energy transfer (TR-FRET) Enzymatic assay method for their potential to inhibit JAK2 (Janus kinase) activity.
TR-FRET assays are homogeneous proximity assays where Eu-labeled antiphosphotyrosine antibody binds to the phosphorylated substrates labeled with Ulight fluorescence acceptor. Eu can transfer energy to Ulight accepter in the complex and the interaction of two dye-labeled binding partners is detected by the energy transfer between a donor and an acceptor dye, and the subsequent light emission by the acceptor dye. The intensity of the light emission is proportional to the level of Ulight peptide phosphorylation.
Two μL of 10% DMSO in blank, substrate control and positive control wells and 2 μL of test compound in test wells was added. Thirteen μL of assay buffer in blank and substrate control wells and 13 μL of Enzyme buffer mix in positive and test wells was added. The reaction mixture was incubated for 30 minutes at RT on a plate shaker. Ultra Light-pGT substrate (5 μL) [poly Glu-Tyr (4:1) labeled with U Light TM dye, a tyrosine kinase substrate] and ATP mix was added to all wells. The reaction plate was incubated for 60 minutes at RT on a plate shaker. The reaction was stopped by adding 40 mM EDTA (10 μL) in buffer. Ten μL of antibody was added to all the wells. The plate was read in a Wallac® 1420 Multilabel Counter Victor 3 instrument (Ex: 340 nm Em: 615 & 665 nm) The following calculations were made:
F@ 665 Value-Buffer blank
F@ 615 Value-Buffer blank
Ratio of F@665/F@615-Substrate Blank
% Activity=(Test Sample/Positive control)*100%
Inhibition=(100−% Activity)

| SMILES | IC50 [1] [nM] | IC50 [2] [nM] |
| --- | --- | --- |
| N#CCC1CCN(c2ccc(Nc3nc(-c4ccccc4)nc4cn[nH]c(=O)c34)cn2)CC1 [Example 101, 2-(1-(5-((5-oxo-2-phenyl-5,6-dihydropyrimido[4,5-d]pyridazin-4-yl)amino)pyridin-2-yl)piperidin-4-yl) acetonitrile] | > 100 | > 100 |
| NC(=O)CC1CCN(c2ccc(Nc3nc(-c4ccccc4)nc4cn[nH]c(=O)c34)cn2)CC1 [Example 102, 2-(1-(5-((5-oxo-2-phenyl-5,6-dihydropyrimido[4,5-d]pyridazin-4-yl)amino)pyridin-2-yl)piperidin-4-yl) acetamide] | < 50 | > 100 |
| O=C(O)CN1CCN(CCOc2ccc(Nc3nc(N4CCCCCC4)nc4cn[nH]c(=O)c34)cc2)CC1 [Example 106, 2-(4-(2-(4-((2-(azepan-1-yl)-5-oxo-5,6-dihydropyrimido[4,5-d]pyridazin-4-yl)amino)phenoxy)ethyl)piperazin-1-yl) acetic acid] | < 50 | < 50 |
| N#CCC1CCN(c2ccc(Nc3nc(N4CCCCCC4)nc4cn[nH]c(=O)c34)cc2)CC1 [Example 113, 2-(1-(4-((2-(azepan-1-yl)-5-oxo-5,6-dihydropyrimido[4,5-d]pyridazin-4-yl)amino)phenyl)piperidin-4-yl)acetonitrile] | > 100 | < 10 |
| CC(C)(O)C(=O)N1CCN(CCOc2ccc(Nc3nc(N4CCCCCC4)nc4cn[nH]c(=O)c34)cc2)CC1 [Example 115, 2-(azepan-1-yl)-4-((4-(2-(4-(2-hydroxy-2-methylpropanoyl)piperazin-1-yl)ethoxy)phenyl)amino)pyrimido[4,5-d]pyridazin-5(6H)-one] | < 50 | < 50 |
| O=C(O)CC1CCN(CCCOc2ccc(Nc3nc(N4CCCCCC4)nc4cn[nH]c(=O)c34)cc2)CC1 [Example 126, 2-(1-(3-(4-((2-(azepan-1-yl)-5-oxo-5,6-dihydropyrimido[4,5-d]pyridazin-4-yl)amino)phenoxy)propyl)piperidin-4-yl) acetic acid] | < 100 | < 50 |
| O=C(O)C1CC12CCN(c1ccc(Nc3nc(N4CCCCCC4)nc4cn[nH]c(=O)c34)cn1)CC2 (centres unmarked) [Example 134] | < 50 | < 10 |
| O=c1[nH]ncc2nc(N3CCCCCC3)nc(Nc3ccc(OCCCN4CCNCC4)cc3)c12 [Example 136, 2-(azepan-1-yl)-4-((4-(3-(piperazin-1-yl)propoxy)phenyl)amino)pyrimido[4,5-d]pyridazin-5(6H)-one] | < 50 | < 50 |
| CC(C)(O)C1CCN(c2ccc(Nc3nc(N4CCCCCC4)nc4cn[nH]c(=O)c34)cc2)CC1 [Example 139, 2-(azepan-1-yl)-4-((4-(4-(2-hydroxypropan-2-yl)piperidin-1-yl)phenyl)amino)pyrimido[4,5-d]pyridazin-5(6H)-one] | < 50 | < 10 |
| CC(C)(C(=O)O)N1CCN(c2ccc(Nc3nc(N4CCCCCC4)nc4cn[nH]c(=O)c34)cc2)CC1 [Example 140, 2-(4-(4-((2-(azepan-1-yl)-5-oxo-5,6-dihydropyrimido[4,5-d]pyridazin-4-yl)amino)phenyl)piperazin-1-yl)-2-methylpropanoic acid] | < 10 | < 10 |
| O=C(O)C1CC12CCN(c1ccc(Nc3nc(N4CCCCCCC4)nc4cn[nH]c(=O)c34)cc1)CC2 (centres unmarked) [Example 141, 6-(4-((2-(azocan-1-yl)-5-oxo-5,6-dihydropyrimido[4,5-d]pyridazin-4-yl)amino)phenyl)-6-azaspiro[2.5]octane-1-carboxylic acid] | < 50 | < 10 |
| CC(C)(C(=O)O)C1CCN(c2ccc(Nc3nc(N4CCCCCC4)nc4cn[nH]c(=O)c34)cc2)CC1 [Example 142, 2-(1-(4-((2-(azepan-1-yl)-5-oxo-5,6-dihydropyrimido[4,5-d]pyridazin-4-yl)amino)phenyl)piperidin-4-yl)-2-methylpropanoic acid] | < 50 | < 10 |
| CC(C)(C(=O)O)C1CCN(c2ccc(Nc3nc(-c4ccccc4)nc4cn[nH]c(=O)c34)cc2)CC1 [Example 143, 2-methyl-2-(1-(4-((5-oxo-2-phenyl-5,6-dihydropyrimido[4,5-d]pyridazin-4-yl)amino)phenyl)piperidin-4-yl)propanoic acid] | < 50 | > 100 |
| O=C(O)CN1CCN(c2ccc(Nc3nc(N4CCCCCC4)nc4cn[nH]c(=O)c34)cn2)CC1 [Example 144, 2-(4-(5-((2-(azepan-1-yl)-5-oxo-5,6-dihydropyrimido[4,5-d]pyridazin-4-yl)amino)pyridin-2-yl)piperazin-1-yl)acetic acid] | < 100 | < 100 |
| N#CCC1CCN(c2nc(Nc3ccc(N4CCC5(CC4)CC5C(=O)O)nc3)c3c(=O)[nH]ncc3n2)CC1 (centres unmarked) [Example 148, 6-(5-((2-(4-(cyanomethyl)piperidin-1-yl)-5-oxo-5,6-dihydropyrimido[4,5-d]pyridazin-4-yl)amino)pyridin-2-yl)-6-azaspiro[2.5]octane-1-carboxylic acid] | < 50 | < 50 |
| N#CCC1CCN(c2nc(Nc3ccc(OCCN4CCNCC4)cc3)c3c(=O)[nH]ncc3n2)CC1 [Example 150, 2-(1-(5-oxo-4-((4-(2-(piperazin-1-yl)ethoxy)phenyl)amino)-5,6-dihydropyrimido[4,5-d]pyridazin-2-yl)piperidin-4-yl)acetonitrile] | < 50 | > 100 |
| O=c1[nH]ncc2nc(-c3ccccc3)nc(Nc3ccc(OCCN4CCNCC4)cc3)c12 [Example 152, 2-phenyl-4-((4-(2-(piperazin-1-yl)ethoxy)phenyl)amino)pyrimido[4,5-d]pyridazin-5(6H)-one] | < 50 | > 100 |

The remaining lines, values ahead:

| IC50 [1] [nM] | IC50 [2] [nM] | SMILES |
| --- | --- | --- |
| < 10 | < 10 | NC(=O)CC1CCN(c2ccc(Nc3nc(N4CCCCCC4)nc4cn[nH]c(=O)c34)cc2)CC1 [Example 105, 2-(1-(4-((2-(azepan-1-yl)-5-oxo-5,6-dihydropyrimido[4,5-d]pyridazin-4-yl)amino)phenyl)piperidin-4-yl)acetamide] |
| < 10 | < 10 | O=C(CC1CCN(c2ccc(Nc3nc(N4CCCCCC4)nc4cn[nH]c(=O)c34)cc2)CC1)NCCO [Example 109, 2-(1-(4-((2-(azepan-1-yl)-5-oxo-5,6-dihydropyrimido[4,5-d]pyridazin-4-yl)amino)phenyl)piperidin-4-yl)-N-(2-hydroxyethyl)acetamide] |
| < 10 | < 50 | O=c1[nH]ncc2nc(N3CCCCCC3)nc(Nc3ccc(OC[C@@H]4CO[C@@H](CO)CO4)cc3)c12 [Example 110, 2-(azepan-1-yl)-4-((4-(((2S,5S)-5-(hydroxymethyl)-1,4-dioxan-2-yl)methoxy)phenyl)amino)pyrimido[4,5-d]pyridazin-5(6H)-one] |
| < 10 | < 50 | N#CCC1CCN(c2ccc(Nc3nc(N4CCC(CC#N)CC4)nc4cn[nH]c(=O)c34)cn2)CC1 [Example 114, 2-(1-(5-((2-(4-(cyanomethyl)piperidin-1-yl)-5-oxo-5,6-dihydropyrimido[4,5-d]pyridazin-4-yl)amino)pyridin-2-yl)piperidin-4-yl)acetonitrile] |
| < 10 | < 10 | O=C(O)[C@H]1CO[C@H](COc2ccc(Nc3nc(N4CCCCCC4)nc4cn[nH]c(=O)c34)cc2)CO1 [Example 124, (2R,5S)-5-((4-((2-(azepan-1-yl)-5-oxo-5,6-dihydropyrimido[4,5-d]pyridazin-4-yl)amino)phenoxy)methyl)-1,4-dioxane-2-carboxylic acid] |
| < 10 | < 10 | O=C(O)C[C@H]1CC[C@H](c2ccc(Nc3nc(N4CCCCCC4)nc4cn[nH]c(=O)c34)cc2)CC1 [Example 129, 2-((1R,4R)-4-(4-((2-(azepan-1-yl)-5-oxo-5,6-dihydropyrimido[4,5-d]pyridazin-4-yl)amino)phenyl)cyclohexyl)acetic acid] |
| < 10 | < 10 | O=C(O)CCC1CCN(c2ccc(Nc3nc(N4CCCCCC4)nc4cn[nH]c(=O)c34)cc2)CC1 [Example 130, 3-(1-(4-((2-(azepan-1-yl)-5-oxo-5,6-dihydropyrimido[4,5-d]pyridazin-4-yl)amino)phenyl)piperidin-4-yl)propanoic acid] |
| < 10 | < 10 | O=C(O)C1CC12CCN(c1ccc(Nc3nc(N4CCCCCC4)nc4cn[nH]c(=O)c34)cc1F)CC2 (centres unmarked) [Example 135, 6-(4-((2-(azepan-1-yl)-5-oxo-5,6-dihydropyrimido[4,5-d]pyridazin-4-yl)amino)-2-fluorophenyl)-6-azaspiro[2.5]octane-1-carboxylic acid] |
